# Patent publication US20200390781A1, “CERTAIN (2S)-N-[(1S)-1-CYANO-2-PHENYLETHYL]-1,4-OXAZEPANE-2-CARBOXAMIDES FOR TREATING ANCA ASSOCIATED VASCULITIDES” (INSMED INCORPORATED, priority 2018, published 2020)
# How the values were obtained:
# Format in all cases: cell-based, human
# [1] = test system: surface PR3; experiment: Fluorescence microscopy of surface PR3 on differentiated neutrophils; settings: differentiation in the presence of 10 μM INS1007; neutrophils derived from bone marrow or umbilical cord stem cells (both cell types)
# Experimental: To evaluate the pharmacological effects of INS1007 on surface PR3 expression, total PR3 expression, and NSP activity, stem cells were differentiated to neutrophils in the presence of INS1007 at increasing concentrations. Primary bone marrow (BM) or umbilical cord blood (UC) derived CD34^+ neutrophil progenitor cells (AllCells; Alameda, Calif.) were cultured for 7 days in STEMSPAN™ SFEM media (Stemcell Technologies; Tukwila, Wash.) supplemented with recombinant human Stem Cell Factor (Peprotech; Rocky Hill, N.J.) and recombinant human IL-3 (Peprotech). The cells were differentiated in culture for another 7 days in STEMSPAN® SFEM media (Stemcell Technologies) with recombinant human Granulocyte Colony Stimulating Factor (Peprotech), plus increasing concentrations of INS1007 (0-10 μM). […]
# In a separate experiment, neutrophils were harvested, stained for 30 min. with either a mouse anti-PR3 monoclonal antibody (Abcam; Cambridge, Mass.) or a mouse monoclonal IgG isotype control (Abcam), followed by a Cy5-conjugated goat anti-mouse IgG secondary antibody (Abcam), fixed in 4% formaldehyde, and mounted to glass slides with PROLONG® Diamond Antifade Mountant with DAPI (Thermo Fisher; Waltham, Mass.). Samples were imaged with an Axio fluorescence microscope (Zeiss; Oberkochen, Germany) using constant settings while imaging samples from different treatment conditions.
# [2] = test system: cathepsin G (CatG); experiment: CatG activity in lysates of neutrophils differentiated in the presence of INS1007; settings: highest concentration tested (10 μM); data not shown
# Experimental: (§1) To evaluate the pharmacological effects of INS1007 on surface PR3 expression, total PR3 expression, and NSP activity, stem cells were differentiated to neutrophils in the presence of INS1007 at increasing concentrations. Primary bone marrow (BM) or umbilical cord blood (UC) derived CD34^+ neutrophil progenitor cells (AllCells; Alameda, Calif.) were cultured for 7 days in STEMSPAN™ SFEM media (Stemcell Technologies; Tukwila, Wash.) supplemented with recombinant human Stem Cell Factor (Peprotech; Rocky Hill, N.J.) and recombinant human IL-3 (Peprotech). […]
# (§2) Neutrophils in a separate aliquot of harvested neutrophils were lysed with 10% (v/v) Triton X-100 in PBS and the lysates were added to 96-well plates. Peptide substrates for NE (N-Methoxysuccinyl-Ala-Ala-Pro-Val-7-amido-4-methylcoumarin; Sigma-Aldrich; St. Louis, Mo.), for PR3 (aminobenzoyl-Val-Ala-Asp-Cys-Ala-Asp-Gln-Lys(2,4-dinitrophenyl); GenScript; Piscataway, N.J.), and for CatG (N-Succinyl-Ala-Ala-Pro-Phe p-nitroanilide; Sigma) were added, and either fluorescence or absorbance was quantified using a SYNERGY™ microplate reader (BioTek; Winooski, Vt.). […] A portion of cell lysate samples was retained for protein quantification using a PIERCE™ BCA Protein Assay Kit (Thermo Fisher) according to the manufacturer's instructions. […]
# [3] = test system: surface proteinase 3 (PR3); experiment: Surface PR3 expression by flow cytometry in neutrophils differentiated in the presence of INS1007; settings: for percentage of cells with no detectable surface PR3 expression: untreated approximately 30-40%, FIG. 2
# Experimental: (§3) To evaluate the pharmacological effects of INS1007 on surface PR3 expression, total PR3 expression, and NSP activity, stem cells were differentiated to neutrophils in the presence of INS1007 at increasing concentrations. Primary bone marrow (BM) or umbilical cord blood (UC) derived CD34^+ neutrophil progenitor cells (AllCells; Alameda, Calif.) were cultured for 7 days in STEMSPAN™ SFEM media (Stemcell Technologies; Tukwila, Wash.) supplemented with recombinant human Stem Cell Factor (Peprotech; Rocky Hill, N.J.) and recombinant human IL-3 (Peprotech). The cells were differentiated in culture for another 7 days in STEMSPAN® SFEM media (Stemcell Technologies) with recombinant human Granulocyte Colony Stimulating Factor (Peprotech), plus increasing concentrations of INS1007 (0-10 μM). At the end of the differentiation/treatment period, cells were harvested for analysis.
# (§4) Differentiated neutrophils were harvested for flow cytometry to quantify PR3 expression on the surface of neutrophils (FIGS. 1 and 2) and neutrophil total PR3 expression (FIG. 3).
# After harvest, the cells were resuspended in FACS staining buffer and Fc receptors were blocked for 30 min at 4° C. Cells were stained for 30 min with a mouse anti-PR3 monoclonal antibody (Abcam: Cambridge, Mass.) or a mouse monoclonal IgG isotype control (Abcam), followed by a Cy5-conjugated goat anti-mouse IgG secondary antibody (Abcam), and then analyzed using a GUAVA® EASYCYTEI^M 6HT flow cytometer (Millipore; Billerica, Mass.).
# [4] = test system: neutrophil elastase (NE); experiment: NE activity in lysates of neutrophils differentiated in the presence of INS1007; settings: highest concentration tested (10 μM); FIG. 5
# Experimental: as §1, §2
# [5] = test system: total proteinase 3 (PR3); experiment: Total PR3 expression (surface and intracellular) by flow cytometry in differentiated neutrophils; settings: for total PR3 levels: FIG. 3
# Experimental: as §3, §4
# [6] = test system: proteinase 3 (PR3); experiment: PR3 activity in lysates of neutrophils differentiated in the presence of INS1007; settings: highest concentration tested (10 μM); FIG. 6
# Experimental: as §1, §2
smiles,measurement,setting,value
"Cn1c(=O)oc2ccc(-c3ccc(C[C@@H](C#N)NC(=O)[C@@H]4CNCCCO4)cc3)cc21 [INS1007, (2S)—N-{(1S)-1-cyano-2-[4-(3-methyl-2-oxo-2,3-dihydro-1,3-benzoxazol-5-yl)phenyl]ethyl}-1,4-oxazepane-2-carboxamide]",surface PR3 (fluorescence microscopy),[1],markedly reduced
same,decrease of CatG activity,[2],greater than 75%
same,percentage of cells with no detectable surface PR3 expression,[3]; neutrophils derived from bone marrow stem cells,~80%
same,"maximum reduction of surface PR3 expression (MFI, percent of untreated cells)","[3]; neutrophils derived from both bone marrow and umbilical cord blood stem cells, INS1007 0-10 μM, FIG. 1",greater than 60%
same,percentage of cells with no detectable surface PR3 expression,[3]; neutrophils derived from umbilical cord blood stem cells,more than 50%
same,decrease of NE activity,[4],> 90%
same,total PR3 levels,"[5]; bone marrow stem cell-derived neutrophils, not completely concentration-dependent",significantly reduced
same,percentage of cells with positive total PR3 expression,"[5]; neutrophils derived from either umbilical cord blood or bone marrow stem cells, FIG. 4",did not reduce
same,total PR3 levels,[5]; umbilical cord blood stem cell-derived neutrophils,did not reach statistically significant reduction
same,decrease of PR3 activity,[6],> 90%
